Several values for one entry are separate records, joined by “and”; a condition that tells them apart may be missing. Equal entries are not always repeated. Where two headings read alike, the source gives them in different places.
Assays:
[1] = system: TMPRSS2; conditions: Beas-2B; for TMPRSS2 densitometry: Fig. 6A, 6 h, listed as HFG
[2] = human, 3.5 mg/day Oral; cited from earlier work
[3] = system: TMPRSS2; conditions: Caco-2 cells, 18 h treatment then washout
[4] = system: ST14; experiment: RT-qPCR of ST14 mRNA in Caco-2 cells; assay type: cell-based, human; conditions: Fig. S3B, Caco-2, 6 hr, relative to Veh
[5] = system: DCAF1; experiment: qPCR of DCAF1 gene expression in Caco-2 cells; assay type: cell-based, human; conditions: for DCAF1 gene expression: Caco-2, 3µM; for relative DCAF1 gene expression: block Vehicle/HFG/HHT, replicates
[6] = target: T1, TMPRSS2 (Homo sapiens, UniProt O15393); experiment: TMPRSS2 activity assay (Boc-Gln-Ala-Arg-MCA fluorescence); assay type: biochemical; design: purchased LSBio; conditions: for TMPRSS2 activity (FigS9 source data): replicates; for TMPRSS2 catalytic activity: recombinant TMPRSS2, preliminary
Description: Fluorescence (380-15 nm excitation/470-20 nm emission) of the samples was monitored over 4:45 h and the slope of the curves was calculated by linear regression analysis and used as output for TMPRSS2 activity.
Target sequence in this assay (O15393 106-492): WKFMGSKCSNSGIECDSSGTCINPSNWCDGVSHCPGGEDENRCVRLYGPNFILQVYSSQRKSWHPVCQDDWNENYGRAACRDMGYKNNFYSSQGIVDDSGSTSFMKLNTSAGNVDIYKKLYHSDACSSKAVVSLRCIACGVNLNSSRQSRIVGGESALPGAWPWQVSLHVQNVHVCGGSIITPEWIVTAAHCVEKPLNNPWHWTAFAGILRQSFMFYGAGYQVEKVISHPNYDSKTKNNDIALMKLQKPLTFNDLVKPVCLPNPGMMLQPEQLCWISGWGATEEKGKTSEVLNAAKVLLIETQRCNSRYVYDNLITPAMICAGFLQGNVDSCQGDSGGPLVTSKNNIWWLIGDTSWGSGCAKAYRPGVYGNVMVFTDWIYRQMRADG

[7] = system: TMPRSS2-V5; assay type: cell-based, human
[8] = system: TMPRSS2; conditions: for time to substantial reduction in TMPRSS2 expression / endogenous TMPRSS2 protein expression: Caco-2 cells; for time to substantial reduction in TMPRSS2 expression: 3 µM; for endogenous TMPRSS2 protein expression: 18 h; for TMPRSS2 densitometry (relative to 0): Caco-2, 18 h; for TMPRSS2 densitometry, time course: Fig. 4D, Caco-2, 3 µM
[9] = in vitro; conditions: human
[10] = cited from earlier work
[11] = system: TMPRSS2; conditions: for TMPRSS2 transcription: Caco-2 cells
[12] = system: SARS-CoV-2 pseudovirus; experiment: Cell-based proline treatment, pseudoviral entry; conditions: for pseudoviral entry relative to Veh: replicates, listed as HFG
[13] = system: Ace2-GFP; experiment: Immunoblot of Ace2-GFP in Beas-2B cells; assay type: cell-based
[14] = system: TMPRSS2; conditions: Calu-3 cells
[15] = target: T1, TMPRSS2; conditions: Beas-2B, HFG 3 μM 1 h
Target sequence in this assay (O15393 whole entry): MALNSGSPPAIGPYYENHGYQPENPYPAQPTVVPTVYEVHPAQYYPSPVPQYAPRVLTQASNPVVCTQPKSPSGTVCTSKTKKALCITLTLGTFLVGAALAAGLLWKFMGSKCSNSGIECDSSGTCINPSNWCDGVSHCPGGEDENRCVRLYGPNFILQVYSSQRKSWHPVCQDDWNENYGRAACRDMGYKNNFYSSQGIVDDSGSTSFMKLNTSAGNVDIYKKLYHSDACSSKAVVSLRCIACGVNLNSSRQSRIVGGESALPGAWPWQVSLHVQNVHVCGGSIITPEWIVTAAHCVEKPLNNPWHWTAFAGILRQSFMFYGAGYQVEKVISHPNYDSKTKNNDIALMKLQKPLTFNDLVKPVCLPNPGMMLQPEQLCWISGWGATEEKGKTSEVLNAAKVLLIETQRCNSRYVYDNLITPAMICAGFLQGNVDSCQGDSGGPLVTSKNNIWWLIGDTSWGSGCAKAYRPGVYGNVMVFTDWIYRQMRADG

[16] = system: DCAF1; experiment: Cellular thermal shift assay, DCAF1; assay type: binding, human; conditions: Beas-2B, HFG 3 μM 1 h
[17] = system: TMPRSS2; experiment: In vitro transcription and translation proline treatment assay; assay type: biochemical; conditions: with or without L-proline supplementation
Description: TMPRSS2 constructs were synthesized in vitro using TnT Coupled Reticulocyte Lysate System (Promega) following manufacturer’s protocol. HFG plus proline assays were conducted using in vitro transcription and translation kit with free amino acids diluted 5-fold and proline supplemented at indicated concentrations. Following synthesis, products were analyzed via immunoblotting.

[18] = system: E-cadherin; experiment: Immunoblot of E-cadherin in Caco-2 cells; assay type: cell-based, human
[19] = system: SARS-CoV-2 (wildtype-USA-WA1/2020); assay type: cell-based
[20] = system: SARS-CoV-2 pseudovirus; experiment: microbe, parasite or virus in culture; assay type: cell-based; conditions: Severe acute respiratory syndrome-related coronavirus
[21] = system: SARS-CoV-2 pseudovirus; assay type: cell-based
[22] = system: SARS-CoV-2 pseudovirus; assay type: cell-based; remark: listed apart in the source
[23] = system: corin; experiment: RT-qPCR of CORIN mRNA in Caco-2 cells; assay type: cell-based, human; conditions: Fig. S3B, Caco-2, 6 hr, relative to Veh
[24] = system: SARS-CoV-2; conditions: cited from earlier work
[25] = Fig. S3B, Caco-2, 6 hr, relative to Veh
[26] = Caco-2, read-out: In vitro IC50 (viral entry)
[27] = Caco-2, read-out: concentration for 50% reduction in the level of pseudoviral entry

For `O=C(CC1NCCCC1O)Cn1cnc2cc(Br)c(Cl)cc2c1=O` (centres unmarked) [Halofuginone], the “effect on TMPRSS2 protein levels in DCAF1-knockdown cells” value ([1]; DCAF1 siRNA) was “abrogated”, the “TMPRSS2 expression in control knockdown cells” value ([1]; control siRNA) was “reduced TMPRSS2 expression” and the TMPRSS2 densitometry ([1]; Ctrl siRNA, HFG 100 nM) was 0.643 and 0.6245 and 0.6321. For the same compound, the TMPRSS2 densitometry ([1]; Ctrl siRNA, HFG 300 nM) was 0.4952 and 0.3574 and 0.5989, the TMPRSS2 densitometry ([1]; DCAF1 KD 1, HFG 100 nM) was 1.233 and 1.219 and 1.274 and the TMPRSS2 densitometry ([1]; DCAF1 KD 1, HFG 300 nM) was 1.254 and 1.215 and 1.261. The TMPRSS2 densitometry ([1]; DCAF1 KD 2, HFG 100 nM) was 1.233 and 1.237 and 1.31, the TMPRSS2 densitometry ([1]; DCAF1 KD 2, HFG 300 nM) was 1.246 and 1.239 and 1.116 and the Cmax [2] was 7 nM. The “recovery of TMPRSS2 levels after drug removal” value [3] was “returned close to baseline roughly six hours after drug removal”, the “ST14 mRNA expression” value [4] was 0.847 and 0.804 and 0.672 and 1.192 and the “DCAF1 gene expression” value [5] was “do not affect DCAF1 gene expression”. For the same compound, the “relative DCAF1 gene expression” value ([5]; listed as HFG) was 1.066 and 1.83 and 0.845 and 0.576, the “TMPRSS2 activity (FigS9 source data)” value ([6]; 0.08 µM) was 0.4091 and 0.4156 and 0.3953 and 0.4416 and the “TMPRSS2 activity (FigS9 source data)” value ([6]; 0.4 µM) was 0.4106 and 0.359 and 0.3929 and 0.3576. For the same compound, the “TMPRSS2 activity (FigS9 source data)” value ([6]; 2 µM) was 0.4305 and 0.3555 and 0.3601 and 0.3121, the “TMPRSS2 catalytic activity” value [6] was “does not inhibit TMPRSS2 catalytic activity” and the “TMPRSS2-V5 versus LacZ-V5 expression” value [7] was “selectively reduced TMPRSS2 expression”. The “time to substantial reduction in TMPRSS2 expression” value [8] was “within three hours”, the “endogenous TMPRSS2 protein expression” value [8] was “marked reduction” and the “TMPRSS2 densitometry (relative to 0)” value ([8]; Fig. 4C, head 1 (unit not given), listed as HFG) was 0.1807 and 0.1069. For the same compound, the “TMPRSS2 densitometry (relative to 0)” value ([8]; Fig. 4C, head 3, listed as HFG) was 0.1607 and 0.08785, the “TMPRSS2 densitometry, time course” value ([8]; time head 3, listed as HFG) was 0.6876 and 0.6922 and 0.7386 and the “TMPRSS2 densitometry, time course” value ([8]; time head 6, listed as HFG) was 0.2973 and 0.5193 and 0.5743. For the same compound, the “TMPRSS2 densitometry, time course” value ([8]; time head 24, listed as HFG) was 0.2861 and 0.2479 and 0.396, the CC50 [9] was about 5540 nM and the “toxicity profile” value [10] was “very mild toxicity profile and is generally well tolerated”. For the same compound, the “TMPRSS2 transcription” value [11] was “modestly increased”, the “TMPRSS2 mRNA expression, Set1” value [11, 25] was 1.663 and 2.342 and 1.988 and 2.135 and the “pseudoviral entry relative to Veh” value ([12]; concentration 0.0137 (unit not given), 0mM Proline) was 152.697 and 134.687 and 120.427 and 97.7116 and 89.0983 and 90.8546 and 80.2015 and 88.7016. The “pseudoviral entry relative to Veh” value ([12]; concentration 0.0137 (unit not given), 1mM Proline) was 78.8997 and 119.296 and 92.4783 and 61.8538 and 121.318 and 103.717 and 95.0292 and 87.0468, the “pseudoviral entry relative to Veh” value ([12]; concentration 0.0137 (unit not given), 5mM Proline) was 83.8659 and 82.9011 and 90.5346 and 126.552 and 83.6269 and 86.2224 and 92.3835 and 76.5378 and the “pseudoviral entry relative to Veh” value ([12]; concentration 0.0412 (unit not given), 0mM Proline) was 135.074 and 83.8509 and 103.144 and 111.461 and 116.846 and 105.51 and 105.878 and 113.705. The “pseudoviral entry relative to Veh” value ([12]; concentration 0.0412 (unit not given), 1mM Proline) was 110.112 and 97.4283 and 87.7103 and 127.69 and 97.5882 and 67.824 and 78.2944 and 117.716, the “pseudoviral entry relative to Veh” value ([12]; concentration 0.0412 (unit not given), 5mM Proline) was 82.5299 and 121.265 and 73.6811 and 85.0503 and 103.755 and 88.171 and 83.5837 and 102.919 and the “pseudoviral entry relative to Veh” value ([12]; concentration 0.123 (unit not given), 0mM Proline) was 99.7343 and 63.0974 and 80.3685 and 70.3519 and 79.4198 and 74.6305 and 82.2505 and 58.3341. For the same compound, the “pseudoviral entry relative to Veh” value ([12]; concentration 0.123 (unit not given), 1mM Proline) was 81.4705 and 100.257 and 127.468 and 88.584 and 113.575 and 85.4328 and 91.2395 and 78.3868, the “pseudoviral entry relative to Veh” value ([12]; concentration 0.123 (unit not given), 5mM Proline) was 62.4818 and 82.8199 and 109.855 and 101.172 and 80.2202 and 78.6211 and 92.2054 and 82.6012 and the “pseudoviral entry relative to Veh” value ([12]; concentration 0.37 (unit not given), 0mM Proline) was 52.2274 and 41.9717 and 59.924 and 47.6381 and 40.7991 and 39.6967 and 44.7511 and 47.5163. For the same compound, the “pseudoviral entry relative to Veh” value ([12]; concentration 0.37 (unit not given), 1mM Proline) was 63.0963 and 89.0802 and 95.5491 and 76.9085 and 75.5967 and 54.6206 and 124.078 and 94.9093, the “pseudoviral entry relative to Veh” value ([12]; concentration 0.37 (unit not given), 5mM Proline) was 84.0152 and 111.59 and 116.82 and 90.6831 and 82.0915 and 111.563 and 85.8373 and 95.0829 and the “protection against pseudoviral entry with proline augmentation” value ([12]; proline added to cell culture media) was “ablated”. For the same compound, the “Ace2 protein” value [13] was “unaffected”, the “TMPRSS2 protein levels” value [14] was “qualitatively similar decreases” and the “binding to TMPRSS2” value [15] was “does not bind”. For the same compound, the “binding to DCAF1” value [16] was “does not bind”, the “synthesis of TMPRSS2” value [17] was “can inhibit the in vitro and in vivo synthesis of TMPRSS2 in a proline-dependent fashion” and the “E-cadherin protein” value [18] was “unaffected”. The “reduction of SARS-CoV-2 viral infection” value [19] was “highly effective in reducing SARS-CoV-2 viral infection”, the IC50 [20, 26] was about 30 nM and the IC50 [20, 27] was about 300 nM. For the same compound, the “pseudoviral GFP expression” value [21] was “markedly reduced levels of GFP expression”, the “pseudoviral luciferase reporter signal” value [22] was “dose-dependent reduction of the luciferase signal” and the “signal relative to Control (FigS7 source data)” value [22] was 0.6435 and 0.5799 and 0.5278.

For `COC(=O)C[C@](O)(CCCC(C)(C)O)C(=O)O[C@@H]1C(OC)=C[C@]23CCCN2CCc2cc4c(cc2[C@H]13)OCO4` [Homoharringtonine], the “recovery of TMPRSS2 levels after drug removal” value [3] was “returned close to baseline roughly six hours after drug removal”, the “DCAF1 gene expression” value [5] was “do not affect DCAF1 gene expression” and the “relative DCAF1 gene expression” value ([5]; listed as HHT) was 1.551 and 2.869 and 1.311. For the same compound, the “CORIN mRNA expression” value [23] was 1.163 and 0.982 and 0.932 and 0.999, the “TMPRSS2 activity (FigS9 source data)” value ([6]; 0.08 µM) was 0.4186 and 0.4254 and 0.3869 and 0.4813 and the “TMPRSS2 activity (FigS9 source data)” value ([6]; 0.4 µM) was 0.428 and 0.3513 and 0.3883 and 0.3736. The “TMPRSS2 activity (FigS9 source data)” value ([6]; 2 µM) was 0.3803 and 0.3278 and 0.3209 and 0.2843, the “TMPRSS2 catalytic activity” value [6] was “do not inhibit TMPRSS2 activity” and the “TMPRSS2-V5 versus LacZ-V5 expression” value [7] was “selectively reduced TMPRSS2 expression”. The “time to substantial reduction in TMPRSS2 expression” value [8] was “within three hours”, the “endogenous TMPRSS2 protein expression” value [8] was “marked reduction” and the “TMPRSS2 densitometry (relative to 0)” value ([8]; Fig. 4B, head 0.3 (unit not given), listed as HHT) was 0.2253 and 0.285. The “TMPRSS2 densitometry (relative to 0)” value ([8]; Fig. 4B, head 1, listed as HHT) was 0.1372 and 0.2276, the “TMPRSS2 densitometry (relative to 0)” value ([8]; Fig. 4B, head 3, listed as HHT) was 0.1102 and 0.1378 and the CC50 [9] was over 10000 nM. The “clinical adverse events” value [10] was “grade III or IV adverse events, including severe myelosuppression”, the “toxicity profile” value [10] was “relatively toxic agent with an adverse side effect profile” and the “TMPRSS2 transcription” value [11] was “modestly increased”. The “TMPRSS2 mRNA expression, Set1” value [11, 25] was 2.5 and 2.009 and 1.288 and 1.873, the “TMPRSS2 mRNA expression, set2” value [11, 25] was 2.103 and 1.771 and 1.821 and 2.33 and the “TMPRSS2 mRNA expression, set3” value [11, 25] was 2.872 and 1.654 and 1.63 and 2.705. The “Ace2 protein” value [13] was “unaffected”, the “TMPRSS2 protein levels” value [14] was “qualitatively similar decreases” and the “E-cadherin protein” value [18] was “unaffected”. For the same compound, the “EC50 observed in TMPRSS2-expressing Calu-3 cells” value [19] was “in the sub-micromolar range”, the “reduction of SARS-CoV-2 viral infection” value [19] was “highly effective in reducing SARS-CoV-2 viral infection” and the IC50 [20, 26] was about 30 nM. The IC50 [20, 27] was about 300 nM, the “pseudoviral GFP expression” value [21] was “markedly reduced levels of GFP expression” and the EC50 [24] was 2100 nM. The “pseudoviral luciferase reporter signal” value [22] was “dose-dependent reduction of the luciferase signal” and the “signal relative to Control (FigS7 source data)” value [22] was 0.9261 and 0.5325 and 0.6307.

— paper PMC8222394 (Nature Communications, 2021)
